We go through 49 molecules from patent publication US11591336B2 (Relay Therapeutics, Inc., priority 2017, dated 2023).

pIC50: −log10 of the molar value. Structures can show the parent of a compound that is named as a salt.

The target in the experiment is SHP2 (Homo sapiens (Human), UniProt Q06124). Kind of experiment: SHP2 Allosteric Inhibition Assay (DiFMUP prompt fluorescence). It is filed as biochemical. The note with it: 0.25 nM SHP2 activated with 0.5 μM peptide IRS1_pY1172(dPEG8)pY1222; substrate DiFMUP 100 μM; 25° C.
SHP2, sequence (Q06124 whole entry): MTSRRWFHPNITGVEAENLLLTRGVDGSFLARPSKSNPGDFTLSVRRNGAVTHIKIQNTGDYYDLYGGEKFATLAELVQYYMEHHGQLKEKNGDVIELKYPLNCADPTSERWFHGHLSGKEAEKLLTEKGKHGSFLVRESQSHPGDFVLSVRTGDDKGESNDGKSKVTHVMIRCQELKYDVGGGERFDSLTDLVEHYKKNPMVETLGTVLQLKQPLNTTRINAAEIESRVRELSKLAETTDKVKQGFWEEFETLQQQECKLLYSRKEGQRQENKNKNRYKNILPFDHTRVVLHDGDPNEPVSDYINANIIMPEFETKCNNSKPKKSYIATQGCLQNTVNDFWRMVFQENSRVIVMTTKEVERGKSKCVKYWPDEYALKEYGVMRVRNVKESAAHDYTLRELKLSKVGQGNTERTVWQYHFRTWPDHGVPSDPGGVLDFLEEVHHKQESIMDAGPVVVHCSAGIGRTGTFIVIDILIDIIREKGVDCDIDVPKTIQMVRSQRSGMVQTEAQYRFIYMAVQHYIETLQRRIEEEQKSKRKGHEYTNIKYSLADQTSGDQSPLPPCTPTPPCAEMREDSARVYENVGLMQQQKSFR
The pIC50 is the negative decadic logarithm of the IC50, by convention in mol/L. A higher pIC50 goes with a low IC50. The molecule `NCC1(CO)CCN(c2cnc3c(N4CCCc5ncccc54)n[nH]c3n2)CC1` [Compound 82, (4-(aminomethyl)-1-(3-(3,4-dihydro-1,5-naphthyridin-1(2H)-yl)-1H-pyrazolo[3,4-b]pyrazin-6-yl)piperidin-4-yl)methanol dihydrochloride] gave a pIC50 above 6.00.
For `CNCCN(C)c1n[nH]c2nc(N3CCC(C)(CN)CC3)cnc12` [Compound 474] the value was at most 5.00.
Under `NC(=O)NC1CCN(c2cnc3c(N4CCCc5ncccc54)n[nH]c3n2)CC1` [Compound 160] stands at most 5.00; under `C[C@@H]1OCC2(CCN(c3cnc4c(N5CCCc6c(C#N)cccc65)n[nH]c4n3)CC2)[C@@H]1N` [Compound 386], above 6.00.
For `CC1(CN)CCN(c2cnc3c(N4CCCc5c(-c6cc(F)c(F)c(F)c6)cccc54)n[nH]c3n2)CC1` [Compound 72] the value was above 6.00.
In turn, `NC1CCCC12CCN(c1cnc3c(N4CCCc5ncccc54)n[nH]c3n1)CC2` (stereo not shown) [Compound 53, 8-(3-(3,4-dihydro-1,5-naphthyridin-1(2H)-yl)-1H-pyrazolo[3,4-b]pyrazin-6-yl)-8-azaspiro[4.5]decan-1-amine] showed a pIC50 above 6.00.
For `Cn1cc(-c2ccc3c(n2)CCCN3c2n[nH]c3nc(N4CCC5(CC4)COC[C@H]5N)cnc23)cn1` [Compound 290] the value was above 6.00.
For `CC1CCN(c2n[nH]c3nc(N4CCC(C)(CN)CC4)cnc23)c2cccnc21` (single isomer, unassigned) [Compound 128] the value was above 6.00.
For `C[C@@H]1OCC2(CCN(c3cnc4c(N5CC(=O)N(C)c6ccccc65)n[nH]c4n3)CC2)[C@@H]1N` [Compound 238] the value was above 6.00.
In turn, `C[C@@H]1OCC2(CCN(c3cnc4c(N5CCN(CCO)c6cc(C#N)ccc65)n[nH]c4n3)CC2)[C@@H]1N` [Compound 439] had a pIC50 above 6.00.
For `C[C@@H]1OCC2(CCN(c3cnc4c(N5CCCc6nc(-n7cnnc7)ccc65)n[nH]c4n3)CC2)[C@@H]1N` [Compound 308] the value was above 6.00; for `CC1(CNC(=O)OCCSSCCOC(=O)NCC2(C)CCN(c3cnc4c(N5CCCc6ncccc65)n[nH]c4n3)CC2)CCN(c2cnc3c(N4CCCc5ncccc54)n[nH]c3n2)CC1` [Compound 166, disulfanediylbis(ethane-2,1-diyl) bis(((1-(3-(3,4-dihydro-1,5-naphthyridin-1(2H)-yl)-1H-pyrazolo[3,4-b]pyrazin-6-yl)-4-methylpiperidin-4-yl)methyl)carbamate)], above 6.00.
Under `CC1c2ccccc2CCN1c1n[nH]c2nc(N3CCC4(CC3)CO[C@@H](C)[C@H]4N)cnc12` (stereo partly shown) [Compound 357] stands above 6.00; under `CC(C)N1CCN(c2n[nH]c3nc(N4CCC5(CC4)CO[C@@H](C)[C@H]5N)cnc23)c2ccc(C#N)cc21` [Compound 409], above 6.00; under `CC1(CN)CCN(c2cnc3c(N4CCc5cnccc54)n[nH]c3n2)CC1` [Compound 125], 5.00 to 6.00.
Under `COC(=O)c1ccc2c(n1)CCCN2c1n[nH]c2nc(N3CCC(C)(CN)CC3)cnc12` [Compound 81] stands above 6.00.
`C[C@@H]1OCC2(CCN(c3cnc4c(N5CCCc6c5ccc(C#N)c6CC#N)n[nH]c4n3)CC2)[C@@H]1N` [Compound 528] gave a pIC50 above 6.00.
The molecule `C[C@@H]1OCC2(CCN(c3cnc4c(N5CCN(C67CC(F)(C6)C7)c6cc(C#N)ccc65)n[nH]c4n3)CC2)[C@@H]1N` [Compound 532] showed a pIC50 above 6.00.
For `N[C@H]1CCCC12CCN(c1cnc3c(N4CCCc5ncccc54)n[nH]c3n1)CC2` [Compound 211], the pIC50 was above 6.00.
Under `Cc1cccc2c1CCCN2c1n[nH]c2nc(N3CCC4(CC3)CO[C@@H](C)[C@H]4N)cnc12` [Compound 330] stands above 6.00; under `CNC(=O)Cc1ccc2c(n1)CCCN2c1n[nH]c2nc(N3CCC4(CC3)CO[C@@H](C)[C@H]4N)cnc12` [Compound 425, 2-(5-{6-[(3S,4S)-4-amino-3-methyl-2-oxa-8-azaspiro[4.5]decan-8-yl]-1H-pyrazolo[3,4-b]pyrazin-3-yl}-5,6,7,8-tetrahydro-1,5-naphthyridin-2-yl)-N-methylacetamide], above 6.00.
For `NC(C(=O)O)C1CCN(c2cnc3c(N4CCCc5ncccc54)n[nH]c3n2)CC1` (stereo not shown) [Compound 178, 2-amino-2-{1-[3-(1,2,3,4-tetrahydro-1,5-naphthyridin-1-yl)-1H-pyrazolo[3,4-b]pyrazin-6-yl]piperidin-4-yl}acetic acid dihydrochloride] the value was 5.00 to 6.00; for `C=C(C)c1cccc2c1CCCN2c1n[nH]c2nc(N3CCC4(CC3)CO[C@@H](C)[C@H]4N)cnc12` [Compound 462], above 6.00; for `CC1(CN)CCN(c2cnc3c(N4CCCc5c(C(F)F)cccc54)n[nH]c3n2)CC1` [Compound 78], above 6.00.
For `CC1CCN(c2n[nH]c3nc(N4CCC(C)(CN)CC4)cnc23)c2ccc(C(N)=O)cc21` (stereo not shown) [Compound 112, 1-(6-(4-(aminomethyl)-4-methylpiperidin-1-yl)-1H-pyrazolo[3,4-b]pyrazin-3-yl)-4-methyl-1,2,3,4-tetrahydroquinoline-6-carboxamide formate] the value was above 6.00.
The molecule `CC1(CN)CCN(c2cnc3c(N4CCc5cc(C(N)=O)ccc54)n[nH]c3n2)CC1` [Compound 114, 1-(6-(4-(aminomethyl)-4-methylpiperidin-1-yl)-1H-pyrazolo[3,4-b]pyrazin-3-yl)indoline-5-carboxamide] had a pIC50 above 6.00.
The molecule `C[C@@H]1OCC2(CCN(c3cnc4c(N5CC[C@H](C)c6nc(-c7ncon7)ccc65)n[nH]c4n3)CC2)[C@@H]1N` (single isomer, unassigned) [Compound 370] showed a pIC50 above 6.00.
Molecule `CC1(N)CCN(c2cnc3c(Sc4ccc[nH]c4=O)n[nH]c3n2)CC1` [Compound 475, 3-((6-(4-amino-4-methylpiperidin-1-yl)-1H-pyrazolo[3,4-b]pyrazin-3-yl)thio)pyridin-2(1H)-one] had a pIC50 of 5.00 to 6.00.
Under `CC1(CN)CCN(c2cnc3c(N4CCc5cc(C#N)ccc54)n[nH]c3n2)CC1` [Compound 133] stands above 6.00.
Molecule `CC1(CN)CCN(c2cnc3c(N4CCN(c5cccnc5)c5ccccc54)n[nH]c3n2)CC1` [Compound 68] gave a pIC50 above 6.00.
For the molecule `C[C@@H]1CCN(c2n[nH]c3nc(N4CCC5(CC4)CO[C@@H](C)[C@H]5N)cnc23)c2cc(F)cnc21` (single isomer, unassigned) [Compound 262, hydrochloride], the pIC50 was above 6.00.
For `CC1(CN)CCN(c2cnc3c(N4CCCc5c4cccc5S(C)(=O)=O)n[nH]c3n2)CC1` [Compound 185] the value was above 6.00; for `C[C@@H]1OCC2(CCN(c3cnc4c(N5CCN(C)c6nc(C#N)ccc65)n[nH]c4n3)CC2)[C@@H]1N` [Compound 383], above 6.00.
Take `C[C@@H]1OCC2(CCN(c3cnc4c(N5CCc6ccccc6C5)n[nH]c4n3)CC2)[C@@H]1N` [Compound 268]: the pIC50 was above 6.00.
For `C[C@@H]1OCC2(CCN(c3cnc4c(N5CCN(C(N)=O)c6ncccc65)n[nH]c4n3)CC2)[C@@H]1N` [Compound 258, 1-{6-[(3S,4S)-4-amino-3-methyl-2-oxa-8-azaspiro[4.5]decan-8-yl]-1H-pyrazolo[3,4-b]pyrazin-3-yl}-1H,2H,3H,4H-pyrido[2,3-b]pyrazine-4-carboxamide hydrochloride] the value was above 6.00; for `C[C@@H]1OCC2(CCN(c3cnc4c(N5CCCc6nc(CC#N)ccc65)n[nH]c4n3)CC2)[C@@H]1N` [Compound 352], above 6.00.
Under `C[C@@H]1OCC2(CCN(c3cnc4c(N5CCCc6c5ccn(C)c6=O)n[nH]c4n3)CC2)[C@@H]1N` [Compound 240] stands above 6.00.
In turn, `C[C@@H]1OCC2(CCN(c3cnc4c(N5CCCc6c5cccc6S(=O)(=O)C5COC5)n[nH]c4n3)CC2)[C@@H]1N` [Compound 464] showed a pIC50 above 6.00.
Under `CC1(CN)CCN(c2cnc3c(N4CCCc5nc(C#N)ccc54)n[nH]c3n2)CC1` [Compound 126] stands above 6.00; under `C[C@@H]1OCC2(CCN(c3cnc4c(N5CCCc6c(C7CCOCC7)cccc65)n[nH]c4n3)CC2)[C@@H]1N` [Compound 251], above 6.00.
As to `NCC1(C(N)=O)CCN(c2cnc3c(N4CCCc5ncccc54)n[nH]c3n2)CC1` [Compound 180, 4-(aminomethyl)-1-(3-(3,4-dihydro-1,5-naphthyridin-1(2H)-yl)-1H-pyrazolo[3,4-b]pyrazin-6-yl)piperidine-4-carboxamide], the pIC50 is above 6.00.
For `C[C@@H]1OCC2(CCN(c3cnc4c(N5CCCc6cc(C#N)ccc65)n[nH]c4n3)CC2)[C@@H]1N` [Compound 217] the value was above 6.00; for `C[C@H](N)C1(C)CCN(c2cnc3c(N4CCCc5ncccc54)n[nH]c3n2)CC1` (single isomer, unassigned) [Compound 110], above 6.00.
Under `CC1(CN)CCN(c2cnc3c(N4CCCc5cc(S(C)(=O)=O)ccc54)n[nH]c3n2)CC1` [Compound 92] stands above 6.00; under `C[C@@H]1OCC2(CCN(c3cnc4c(N5CCCc6c(N)cccc65)n[nH]c4n3)CC2)[C@@H]1N` [Compound 375, (3S,4S)-8-[3-(5-amino-1,2,3,4-tetrahydroquinolin-1-yl)-1H-pyrazolo[3,4-b]pyrazin-6-yl]-3-methyl-2-oxa-8-azaspiro[4.5]decan-4-amine], above 6.00; under `CC1(CN)CCN(c2cnc3c(N4CCCc5c(C6CC6)cccc54)n[nH]c3n2)CC1` [Compound 86], above 6.00.
Molecule `CC1(CN)CCN(c2cnc3c(N4CCc5c(-c6nccs6)cccc54)n[nH]c3n2)CC1` [Compound 173] had a pIC50 above 6.00.
For `C=C(c1ccccc1)c1n[nH]c2nc(N3CCC(C)(CN)CC3)cnc12` [Compound 16, (4-methyl-1-(3-(1-phenylvinyl)-1H-pyrazolo[3,4-b]pyrazin-6-yl)piperidin-4-yl)methanamine] the value was above 6.00.
For `C[C@H]1CCN(c2n[nH]c3nc(N4CCC(C)(CN)CC4)cnc23)c2ccc(-c3nccs3)nc21` (single isomer, unassigned) [Compound 197, hydrochloride] the value was above 6.00.
